Measurements reported in patent US11672815B2, “Composition for inhibiting immune cell proliferation comprising sialyllactose or derivative thereof and method thereof” (CUPIONE CO., LTD., priority 2017, dated 2023).

How the values were obtained:
[1] = tested on: synovial tissues of ankle and knee joints; test: Staining of ankle and knee joints in rheumatoid arthritis mice (FLS and immune cell proliferation); type: in vivo, mouse
chondrocytes = test: Cytotoxicity of sialyllactose on chondrocytes (EZ-Cytox cell viability assay); type: cell-based, mouse; details: 0 μM, 10 μM, 50 μM, 100 μM, or 250 μM, 24 hrs
Method: Chondrocytes were obtained from cartilage tissues derived from femoral heads, femoral condyles, and tibial plateaus of normal mouse at 5 days after birth. The obtained chondrocytes were cultured in DMEM medium (Gibco, USA) containing 10% (v/v) fetal bovine serum (Gibco, USA), 50 μg/ml of streptomycin (Sigma-Aldrich, USA) and 50 unit/ml of penicillin (Sigma-Aldrich, USA).
In order to confirm that 3′- or 6′-sialyllactose has no cytotoxicity on chondrocytes, chondrocytes were cultured in a 96-well culture plate at a density of 9×10^3 cells/well, and then treated with 3′- or 6′-sialyllactose (Genechem Inc., Daejeon, Korea) at a concentration of 0 μM, 10 μM, 50 μM, 100 μM, or 250 μM, followed by incubation in a 5% CO2 incubator at 37° C. for 24 hrs. Cytotoxicity of 3′- or 6′-sialyllactose on chondrocytes was confirmed by measuring absorbance at 450 nm using an EZ-Cytox Cell viability assay kit (DoGen, Korea).

mouse FLS = test: Chemokine, pro-inflammatory cytokine and COX2 expression in stimulated mouse FLS; type: cell-based; details: IL-1β-, IL-6-, IL-17-, and TNF-α-stimulated mouse FLS; 100 μM or 250 μM, 24 hrs
Method: Anti-chemokine and anti-inflammatory effects of 3′-sialyllactose were examined. First, purity of mouse FLS was examined by FACS analysis, and then no effects of 3′-sialyllactose on FLS proliferation and cytotoxicity were examined by WST-1 assay (see FIGS. 14A-A to 14A-C). […] Therefore, in a subsequent in vitro experiment, 3′-sialyllactose was used at a concentration of 0 μM to 250 μM. In order to examine effects of 3′-sialyllactose on IL-1β-, IL-6-, IL-17-, and TNF-α-induced chemokines (e.g., CCL2, CCL5, CCL7, CXCL1, CXCL2, and CXCL5), pro-inflammatory cytokines (IL-1, IL-6, and TNF-α), and COX2 expression, IL-1β-, IL-6-, IL-17-, and TNF-α-stimulated human RA-FLS and mouse FLS were treated with 3′-sialyllactose (100 μM or 250 μM) for 24 hrs.

[2] = tested on: type II collagen (Col2a1); test: Col2a1 expression in chondrocytes (qRT-PCR, Western blotting); type: cell-based, mouse
Method: In order to examine effects of 3′- or 6′-sialyllactose on cartilage formation and regeneration, the chondrocytes obtained in Example 1 were incubated for 36 hrs and then treated with 3′- or 6′-sialyllactose at a concentration of 0 μM, 10 μM, 50 μM, 100 μM, or 250 μM, followed by further incubation for 36 hrs.
Next, in order to perform qRT-PCR, RNA was extracted from the chondrocytes using a TRI reagent (Molecular Research Center Inc.), and cDNA obtained by reverse transcription of RNA was amplified by PCR using primers of SEQ ID NOS: 1 and 2 under condition of annealing temperature of 55° C. to examine expression of type II collagen (Col2a1, 173 bp) which is essential for cartilage formation. As a control group, Gapdh (450 bp, annealing temperature of 58° C.) was examined by using primers of SEQ ID NOS: 3 and 4.
Further, a whole cell lysate was extracted from the chondrocytes using a lysis buffer (150 mM NaCl, 1% NP-40, 50 mM Tris, 5 mM NaF) containing protease and phosphatase inhibitor cocktails (Roche), and Col2a1 expression in the cells was examined. Western blotting was performed using anti-Col2a1 antibody (Millipore) and anti-Erk antibody (Cell signaling), and thickness and concentration of Western blot bands were measured by a computer program and relative values thereof were determined by densitometry (FIGS. 4A and 4B).
IL-1β is a representative inflammatory cytokine inhibiting Col2a1 expression in chondrocytes. Chondrocytes were incubated for 36 hrs, and then treated with 5 ng/ml of IL-1β (GeneScript, USA) for 24 hrs to confirm that Col2a1 expression was decreased by IL-1β.
In order to examine whether the decreased Col2a1 expression is increased again in chondrocytes by 3′- or 6′-sialyllactose, qRT-PCR and Western blotting were performed in the same manner as in Example 2-1.

[3] = tested on: mouse models with rheumatoid arthritis; test: Therapeutic effect in mice with arthritis; type: in vivo; details: 500 mg/kg oral every other day for 2 weeks
Method: Next, in order to examine therapeutic effects of 3′-sialyllactose, mice with arthritis were orally administered with 3′-sialyllactose. In detail, 8-week-old DBA mice were immunized day 0 and day 21, and then orally administered with 500 mg/kg of 3′-sialyllactose every other days for 2 weeks. Control groups were administered with lactose (250 mg/kg), sialic acid (250 mg/kg), or MTX (1 mg/kg).

[4] = tested on: collagen-induced arthritis (CIA) mouse model; test: Prophylactic effect in collagen-induced arthritis (CIA) mouse model; type: in vivo; details: 100 mg/kg and 500 mg/kg oral, 4 weeks
Method: In order to examine prophylactic effects of 3′-sialyllactose during development of arthritis, collagen-induced arthritis (CIA) mouse model was orally administered with 3′-sialyllactose three times a week for 4 weeks at various concentrations (100 mg/kg and 500 mg/kg). In detail, the mouse models immunized day 1 and day 21 were orally administered with 3′-sialyllactose every other days for 4 weeks after second immunization. Control groups were orally administered with PBS, lactose, or sialic acid.

[5] = tested on: atopic dermatitis mouse model; test: Atopic dermatitis mouse model, oral administration; type: in vivo; details: 100 mg/kg or 500 mg/kg oral
Method: In order to examine inhibitory effect of 3′-sialyllactose on atopic dermatitis, ear thickness of atopic dermatitis mouse model was examined at 28 days after oral administration of 100 mg/kg or 500 mg/kg of 3′-sialyllactose. Further, the left ear skin of the mouse was cut into thin sections, stained with hematoxylin and eosin (H&E), and stained with toluidine blue.

## CC(=O)N[C@H]1C([C@H](O)[C@H](O)CO)O[C@@](O[C@@H]2C(O)[C@H](O[C@@H]3C(CO)OC(O)C(O)[C@H]3O)OC(CO)[C@@H]2O)(C(=O)[O-])C[C@H]1O.[Na+] (stereo partly shown) [3′-sialyllactose]
[1]; ankle and knee synovial tissue, anti-CD68 staining
  proliferation of macrophages by rheumatoid arthritis: significantly decreased
[1]; ankle and knee synovial tissue, anti-CD90.2 staining
  proliferation of FLS by rheumatoid arthritis: significantly decreased
[1]; ankle and knee synovial tissue, elastase staining
  proliferation of neutrophils by rheumatoid arthritis: significantly decreased
[1]; hematoxylin and Safranin-O staining
  synovial hyperplasia and infiltration of mononuclear cells into the ankle and knee joints: inhibit
chondrocytes
  cytotoxicity on chondrocytes: did not show cytotoxicity
Mouse FLS
  expression levels of chemokines, pro-inflammatory cytokines, and COX2: remarkably decreased
[2]; 0 to 250 μM, 36 hrs
  Col2a1 expression in chondrocytes: increased
[2]; 5 ng/ml of IL-1β
  Col2a1 expression suppressed by IL-1β in chondrocytes: gradually increased
[3]
  expression of pro-inflammatory cytokines (mouse sera): decreased
  swelling: alleviated
[4]
  expression of pro-inflammatory cytokines (mouse sera): decreased
  swelling of CIA mouse model: alleviated
[5]; 28 days
  mouse ear thickness: decreased
[5]; concentration-dependent
  ear dermal thickness: decreased
  ear epidermal thickness: decreased
  number of mast cells in the ear skin (toluidine blue staining): decreased
